Assay results taken from patent US20220034908A1, “PHARMACEUTICAL COMPOSITION FOR PREVENTING OR TREATING FABRY DISEASE, CONTAINING TSP1 PROTEIN INHIBITOR AS ACTIVE INGREDIENT” (KOREA ADVANCED INSTITUTE OF SCIENCE AND TECHNOLOGY, priority 2018, published 2022).

Legend:
Type in all cases: cell-based, human
[1] = test system: vascular endothelial cells differentiated from FB-iPSCs; experiment: Morphology of vascular endothelial cells differentiated from FB-iPSCs after TGF-β inhibitor treatment; conditions: for therapeutic effect on vasculopathy in patients with Fabry disease: conclusion of Experimental Example 9, patient-derived vascular endothelial cells
Experimental: Particularly, the FB-iPSCs prepared in Example 1 were cultured in a feeder-free state for 3 days. Thereafter, the medium was exchanged with RPMI-1640 medium containing 1% B27, to which 50 ng/ml of activin A and 20 ng/ml of BPM4 were added as growth factors, and then the cells were cultured for 2 days to differentiate into mesoderm cells. The medium was exchanged with RPMI-1640 medium containing 0.5% B27, to which 50 ng/ml of VEGFA and 50 ng/ml of bFGF were added as growth factors, and then the cells were cultured for 2 days to differentiate into vascular progenitors. CD34 positive cells capable of differentiating into vascular endothelial cells were isolated from the induced vascular progenitors by performing magnetic activated cell sorting (MACS) using CD34 magnetic beads. The isolated CD34 positive cells were further cultured for 2 days in EGM-2 medium (Lonza, USA) containing 100 ng/ml of VEGF-A and 100 ng/ml of bFGF as growth factors to differentiate into vascular endothelial cells. Particularly, using the control group treated with only Fabrazyme on the vascular endothelial cells prepared in Example 2, the experimental group treated with only SB431542 (Cayman Chemical, USA), and the experimental group treated with Fabrazyme and SB431542, the morphology of the cells was confirmed. Particularly, using the control group treated with only Fabrazyme on the vascular endothelial cells prepared in Example 2, the experimental group treated with Fabrazyme and SB431542, and the experimental group treated with Fabrazyme and losartan (Cayman Chemical, USA), the morphology of the cells was confirmed.

[2] = test system: vascular endothelial cells differentiated from FB-iPSCs; experiment: Tube formation on matrigel (vasculogenesis) of vascular endothelial cells differentiated from FB-iPSCs; conditions: SB431542 only or Fabrazyme and SB431542 vs Fabrazyme only; FIGS. 23a-23e
Experimental: On the other hand, 70 μl of matrigel (corning) stock solution was put in a 96-well plate and hardened at 37° C., and then 1×10^4 vascular endothelial cells prepared in Example 2 and EGM2 medium were added thereto to confirm the tube formation. Particularly, using the control group treated with only Fabrazyme on the vascular endothelial cells prepared in Example 2, the experimental group treated with only SB431542, and the experimental group treated with Fabrazyme and SB431542, The tube formation was confirmed in the same manner as described in Experimental Example <4-2>.

[3] = test system: TSP1, KDR and eNOS proteins in vascular endothelial cells differentiated from FB-iPSCs; experiment: Western blotting of vasculopathy-related proteins in vascular endothelial cells differentiated from FB-iPSCs
Experimental: (§1) Particularly, the FB-iPSCs prepared in Example 1 were treated with Fabrazyme, a therapeutic agent for Fabry disease, and starvation media in various combinations. Pro-Prep solution (Intron Biotechnology, Korea) was added to each sample and reacted at 4° C., followed by centrifugation at 1300 rpm for 10 minutes to obtain a supernatant. The obtained supernatant was electrophoresed on acrylamide gel and transferred to a nitrocellulose membrane, followed by blocking with 4% skim milk. Then, anti-LC3 antibody (1:1000, Santacruz, USA) was treated thereto and reacted at 4° C. for 24 hours, followed by washing three times with TBS containing tween-20. The protein expression level was confirmed by the conventional Western blotting. The expression level of each protein was corrected using GAPDH as a control.
(§2) Particularly, the vascular endothelial cells prepared in Example 2 were treated with Fabrazyme, and Western blotting was performed in the same manner as described in Experimental Example <3-1>. At this time, anti-KDR antibody (1:1000, Cell Signaling Technologies, USA), anti-eNOS antibody (1:1000, Cell Signaling Technologies, USA) and anti-TSP1 antibody (1:1000, Santacruz, USA) were used as antibodies.
Particularly, using the control group treated with only Fabrazyme on the vascular endothelial cells prepared in Example 2 and the experimental group treated with Fabrazyme and SB431542, Western blotting was performed in the same manner as described in Experimental Example <3-1>. At this time, anti-TSP1 antibody (1:1000, Santacruz, USA), anti-KDR antibody (1:1000, Cell Signaling Technologies, USA) and anti-eNOS antibody (1:1000, Cell Signaling Technologies, USA) were used as antibodies.

[4] = test system: TSP1, KDR, eNOS and phospho-AKT in vascular endothelial cells differentiated from normal iPSCs; experiment: Western blotting of vasculopathy-related proteins after LysoGb3 treatment; conditions: treated for 3, 6, or 9 days; Western blot, FIG. 19
Experimental: as §1
The changes in the expression levels of vasculopathy-related proteins by Gb3 protein were confirmed using Western blotting. Particularly, the vascular endothelial cells differentiated from normal iPSCs were treated with LysoGb3 protein for 3, 6, or 9 days, and Western blotting was performed in the same manner as described in Experimental Example <3-1>. At this time, anti-TSP1 antibody (1:1000, Santacruz, USA), anti-KDR antibody (1:1000, Cell Signaling Technologies, USA), anti-eNOS antibody (1:1000, Cell Signaling Technologies, USA), anti-AKT antibody (1:1000, Cell Signaling Technologies, USA), and anti-phospho-AKT antibody (1:1000, Cell Signaling Technologies, USA) were used as antibodies.

[5] = test system: KDR, eNOS and TSP1 genes in vascular endothelial cells differentiated from normal iPSCs; experiment: RT-PCR of vasculopathy-related genes after LysoGb3 treatment
Experimental: Particularly, the vascular endothelial cells differentiated from normal iPSCs were treated with LysoGb3 protein for 1, 3 or 5 days, and RNA was extracted from the cells using easy-BLUE (Intron). Then, RT-PCR was performed in the conventional manner to confirm the RNA expression levels of KDR, eNOS and TSP1 (Thrombospondin 1) genes related to vasculopathy. As a result, as shown in FIGS. 18a to 18c, the RNA expression levels of KDR, eNOS and TSP1 genes were increased 1 day after the treatment of LysoGb3 protein.

[6] = test system: TSP1 protein in vascular endothelial cells differentiated from normal iPSCs; experiment: Immunostaining of TSP1 protein expression location after LysoGb3 treatment; conditions: FIG. 20
[7] = test system: vascular endothelial cells differentiated from normal iPSCs; experiment: Morphology of vascular endothelial cells differentiated from normal iPSCs after LysoGb3 treatment; conditions: treated for 9 days; FIG. 17
Experimental: Particularly, the vascular endothelial cells differentiated from normal iPSCs were treated with LysoGb3 protein (MATREYA LLC, USA) for 9 days, and then the morphology of the cells was confirmed.

[8] = test system: TSP1 protein in vascular endothelial cells differentiated from normal iPSCs; experiment: Western blotting after activin A treatment of vascular endothelial cells differentiated from normal iPSCs; conditions: activin A treatment of normal iPSC-derived vascular endothelial cells; FIG. 15
Experimental: as §1
Particularly, the vascular endothelial cells differentiated from normal iPSCs were treated with activin A to activate TGF-β, and Western blotting was performed in the same manner as described in Experimental Example <3-1>. […]

LC3 protein in FB-iPSCs = experiment: Western blotting of LC3 protein in FB-iPSCs; conditions: Fabrazyme and starvation media in various combinations, vs normal cells, FIG. 4
Experimental: as §1

[9] = test system: LC3, Beclin 1 and ubiquitin proteins in vascular endothelial cells of patients with Fabry disease; experiment: Western blotting of LC3, Beclin 1 and ubiquitin in vascular endothelial cells of patients with Fabry disease
Experimental: as §1
Particularly, vascular endothelial cells were isolated from the dermal tissue obtained from the patients with Fabry disease of Example 1, to which Fabrazyme was treated. Then, the expression levels of LC3, Beclin 1 and ubiquitin proteins were confirmed by performing Western blotting in the same manner as described in Experimental Example <3-1>. At this time, anti-LC3 antibody (1:1000, Santacruz, USA), anti-Beclin 1 antibody (1:500, Santacruz, USA), and anti-ubiquitin antibody (1:1000, Santacruz, USA) were used as antibodies.

[10] = test system: SMAD2 protein phosphorylation in vascular endothelial cells differentiated from FB-iPSCs; experiment: Western blotting of SMAD2 phosphorylation (TGF-β activation) in vascular endothelial cells differentiated from FB-iPSCs; conditions: Fabrazyme treatment; vs normal control group; FIG. 14
Experimental: as §1
as §2, with “anti-SMAD2” for “anti-KDR antibody (1:1000, Cell Signaling Technologies, USA), anti-eNOS”, “anti-phospho-SMAD2” for “anti-TSP1”, “Cell Signaling Technologies,” for “Santacruz,”

[11] = given with Fabrazyme vs Fabrazyme only, Fab #1, Fab #2 (FIGS. 24a, 24b)
[12] = Fabrazyme and SB431542 vs Fabrazyme only, Western blot, FIG. 22
[13] = vascular endothelial cells of Fabry patients, Fabrazyme treatment, vs normal cells, FIG. 5

## CCCCc1nc(Cl)c(CO)n1Cc1ccc(-c2ccccc2-c2nn[nH]n2)cc1 [losartan]
[1]
  therapeutic effect on vasculopathy in patients with Fabry disease: could not be confirmed
[1]; [11]
  abnormal morphology of the vascular endothelial cells differentiated from FB-iPSCs: had no effect

## NC(=O)c1ccc(-c2nc(-c3ccc4c(c3)OCO4)c(-c3ccccn3)[nH]2)cc1 [SB431542]
[1]; SB431542 only or Fabrazyme and SB431542 vs Fabrazyme only, Fab #1-#4 (FIGS. 21a-21e)
  abnormal morphology of the vascular endothelial cells differentiated from FB-iPSCs: restored to normal
[1]
  therapeutic effect on vasculopathy in patients with Fabry disease: showed a therapeutic effect
[1]; [11]
  abnormal morphology of the vascular endothelial cells differentiated from FB-iPSCs: restored to normal
[2]
  tube formation on matrigel: formed a tube shape
[3]; [12]
  expression level of KDR protein: increased
  expression level of TSP1 protein: decreased
  expression level of eNOS protein: increased

## CCCCCCCCCCCCC/C=C/[C@@H](O)[C@@H](N)CO[C@@H]1O[C@H](CO)[C@@H](O[C@@H]2O[C@H](CO)[C@H](O[C@H]3O[C@H](CO)[C@H](O)[C@H](O)[C@H]3O)[C@H](O)[C@H]2O)[C@H](O)[C@H]1O [LysoGb3 protein]
[4]
  expression level of KDR protein: decreased
  expression level of TSP1 protein: increased
  expression level of eNOS protein: decreased
  phosphorylation of AKT protein: decreased
[5]; 1 day after the treatment
  RNA expression level of KDR gene: increased
  RNA expression level of TSP1 gene: increased
  RNA expression level of eNOS gene: increased
[5]; after 3 and 5 days
  RNA expression level of KDR gene: lower than those of the normal control cells
  RNA expression level of eNOS gene: lower than those of the normal control cells
[6]
  expression location (distribution) of TSP1 protein: distributed throughout the cells
[7]
  morphology of the normal vascular endothelial cells: changed to a widening form

B1: activin A: growth factor used to activate TGF-β (protein, UniProt P08476 311-426, looked up)
Inhibin beta A chain: GLECDGKVNICCKKQFFVSFKDIGWNDWIIAPSGYHANYCEGECPSHIAGTSGSSLSFHSTVINHYRMRGHSPFANLKSCCVPTKLRPMSMLYYDDGQNIIKKDIQNMIVEECGCS
modifications: Inhibin beta A chain
[8]
  expression of TSP1 protein: increased

B2: Fabrazyme: recombinant alpha-galactosidase enzyme, a therapeutic agent for Fabry disease (protein, UniProt P06280 32-429, looked up)
Alpha-galactosidase A: LDNGLARTPTMGWLHWERFMCNLDCQEEPDSCISEKLFMEMAELMVSEGWKDAGYEYLCIDDCWMAPQRDSEGRLQADPQRFPHGIRQLANYVHSKGLKLGIYADVGNKTCAGFPGSFGYYDIDAQTFADWGVDLLKFDGCYCDSLENLADGYKHMSLALNRTGRSIVYSCEWPLYMWPFQKPNYTEIRQYCNHWRNFADIDDSWKSIKSILDWTSFNQERIVDVAGPGGWNDPDMLVIGNFGLSWNQQVTQMALWAIMAAPLFMSNDLRHISPQAKALLQDKDVIAINQDPLGKQGYQLRQGDNFEVWERPLSGLAWAVAMINRQEIGGPRSYTIAVASLGKGVACNPACFITQLLPVKRKLGFYEWTSRLRSHINPTGTVLLQLENTMQMSLKDLL
LC3 protein in FB-iPSCs
  expression level of LC3 protein: higher in FB-iPSCs than in normal cells regardless of the Fabrazyme treatment
[3]; Fabrazyme treatment, vs normal control group, FIG. 13
  increased expression level of TSP1 protein by Fabry disease: not inhibited
[9]; after the treatment of Fabrazyme, conclusion of Experimental Example 3
  characteristics of the lysosomal storage disease: not recovered
[9]; [13]
  expression level of Beclin 1 protein: higher in vascular endothelial cells of patients with Fabry disease than in normal cells regardless of the Fabrazyme treatment
  expression level of LC3 protein: higher in vascular endothelial cells of patients with Fabry disease than in normal cells regardless of the Fabrazyme treatment
  expression level of ubiquitin protein: higher in vascular endothelial cells of patients with Fabry disease than in normal cells regardless of the Fabrazyme treatment
[10]
  phosphorylation level of SMAD2 protein: increased in the vascular endothelial cells derived from patients with Fabry disease compared to the normal control group regardless of the Fabrazyme treatment
